Measurements taken from patent US20080269231A1, “Phenazine Compounds and Use Thereof in Autoimmune and Inflammatory Disease” (JJ Pharma, Inc., priority 2007, published 2008).
“Also recorded” adds a separate entry of the source.

Assays:
[1] = tested on: Type II collagen-induced arthritis (CIA); experiment: Collagen-induced arthritis (CIA) mouse model, clinical assessment; type: in vivo, DBA/1 LacJ mice; settings: vs saline control mice; for number of involved (arthritic) paws: Formula III 40 mg/kg i.p. ×3/week or gavaged ×5/week, Enbrel 100 μg i.p. ×3/week, prednisolone 10 mg/kg gavaged ×5/week
Excerpt: Type II collagen-induced arthritis (CIA) in mice is an accepted experimental model of arthritis with a number of pathological, immunological and genetic features in common with rheumatoid arthritis. This disease is induced by immunization of susceptible strains of mice with type II collagen, the major component of joint cartilage. A progressive, inflammatory arthritis develops in the majority of immunized animals, which is characterized clinically by erythema and edema, with affected paw width increases of typically 100%. A clinical scoring index has been developed to assess disease progression to joint distortion and spondylitis. […] Immunological laboratory findings include high antibody levels to type II collagen and hypergammaglobulinemia.
(§1) This study was designed to evaluate the anti-inflammatory and anti-arthritic activity of compound of Formula III using the CIA model by observing changes in immune parameters due to treatment. The animals were administered oral corticosteroid, Enbrel, an injectable TNF inhibitor, and compound of Formula III using both oral and parenteral delivery. Seventy-five DBA/1 LacJ mice 8-10 weeks of age were obtained from Jackson Labs and quarantined in our facility for 10 days prior to experimentation. All mice weighed >16 grams at the start of the experiment. Mice were pre-bled by retro-orbital puncture, and injected with 100 μg Bovine type II collagen in Freund's complete adjuvant (FCA) intradermally at the base of the tail. Mice were monitored by daily examination for the onset of disease. Mice that developed CIA between 20 days post immunization and 42 days post immunization were assigned to one of five treatment groups on a rotational basis (to normalize onset date), and ten mice were assigned to each group. For administration, compound of Formula III was solubilized in sterile saline. To facilitate drugs delivered by oral administration, carboxymethylcellulose was added to a final concentration of 4% in all gavage solutions. Compounds were administered according to the following schedule: • Group 1. 100 μl sterile saline vehicle injected intraperitoneally (i.p.) ×3/week. • Group 2. 100 μl sterile saline containing compound of Formula III at 40 mg/kg injected i.p. ×3/week. • Group 3. 100 μl sterile saline containing 100 μg Enbrel injected i.p. ×3/week. • Group 4. 100 μl sterile saline containing compound of Formula III at 40 mg/kg gavaged ×5/week. • Group 5. 100 μl sterile saline containing prednisolone 10 mg/kg gavaged ×5/week.
Mice were weighed weekly, and overall health status noted. Arthritic animals were clinically assessed by visual inspection five times per week, and paw swelling quantified by caliper measurements made three times per week, until seven weeks after the initial onset of arthritis. All animals were assessed individually from the time of disease onset, and the appropriate findings were entered into clinical report forms.

[2] = tested on: anti-type II collagen antibody; type: in vivo, DBA/1 LacJ mice; settings: after seven weeks of treatment, Prednisolone 10 mg/kg gavaged ×5/week, Formula III 40 mg/kg i.p. ×3/week; for terminal anti-CII antibody levels compared with control mice: p<0.01
Experimental: as §1
All mice were pre-bled prior to the start of the trial, subsequently at onset of arthritis and at the completion of the trial. Sera were separated and stored at −80° C. ELISA assays were performed to determine anti-type II collagen antibody levels and total immunoglobulin levels.
ELISA plates (Nunc-Immuno plates, Denmark) were coated with 100 μl of coating buffer (0.4M phosphate buffer ph7.6) containing 5 μg of type II collagen, at 4° C. overnight. Plates were washed 3 times with PBS containing 0.05% Tween 20 (Sigma, St. Louis, Mo.) and non specific binding was blocked by PBS containing 5% non fat milk overnight at 4° C. Mouse sera diluted to 1/100 in 5% milk/PBS was added to each well and incubated overnight at 4° C. […] The resulting optical density was measured at 405 nm by using a UV max spectrophotometer (Molecular Devices, CA). […] Antibody binding was expressed as OD405 units-blank.

total serum Ig = experiment: Total serum immunoglobulin levels in CIA mice (ELISA); type: in vivo, DBA/1 LacJ mice; settings: Prednisolone 10 mg/kg gavaged ×5/week; Formula III 40 mg/kg i.p. ×3/week
Experimental: This study was designed to evaluate the anti-inflammatory and anti-arthritic activity of compound of Formula III using the CIA model by observing changes in immune parameters due to treatment. The animals were administered oral corticosteroid, Enbrel, an injectable TNF inhibitor, and compound of Formula III using both oral and parenteral delivery. Seventy-five DBA/1 LacJ mice 8-10 weeks of age were obtained from Jackson Labs and quarantined in our facility for 10 days prior to experimentation. All mice weighed >16 grams at the start of the experiment. Mice were pre-bled by retro-orbital puncture, and injected with 100 μg Bovine type II collagen in Freund's complete adjuvant (FCA) intradermally at the base of the tail. Mice were monitored by daily examination for the onset of disease. Mice that developed CIA between 20 days post immunization and 42 days post immunization were assigned to one of five treatment groups on a rotational basis (to normalize onset date), and ten mice were assigned to each group. For administration, compound of Formula III was solubilized in sterile saline. […]
Serum Ig levels was assessed using an ELISA assay. […] The plate was read at 405 nm using a Photospectrometer (Molecular Devices), and the data analyzed using the SOFTmax analytical software package. […]

[3] = tested on: plasma lipoprotein cholesterol and triglyceride; experiment: Antilipidemic activity in hamsters fed hypercholesterolemic diet; type: in vivo, Syrian Golden hamsters; settings: day 8 of treatment
Excerpt: Eighty-five male Syrian Golden hamsters (F1B strain, BioBreeders, Fitchburg Mass.) approximately 8-10 weeks of age were acclimated to individual hanging polystyrene cages with bedding for 1 week and then fed a semipurified hypercholesterolemic diet (HCD) containing 25% casein, 20% hydrogenated coconut oil, 2% safflower oil, and 0.15% cholesterol by weight for 2 weeks prior to initiation of the experimental treatments (Table 1). Hamsters were then bled (Week 0) following an overnight fast (16 hr) to determine plasma concentrations of total cholesterol, HDL-C, nonHDL-C, and triglycerides and divided into 17 groups (n=5/group) with similar starting plasma HDL-C levels, and administered either compound of Formula II or vehicle once per day for 14 days.
Plasma total cholesterol, HCL-C, nonHDL-C, and triglycerides were then measured at day 8 (prior to gavage that day) and at day 15 (24 hr after last gavage) following and overnight fast (16 hr). Hamsters were maintained in accordance with the guidelines of the Animal Care Committee at the University of Massachusetts-Lowell Research Foundation and the guidelines prepared by the Committee on the Care and Use of Laboratory Animals of the Institute of Laboratory Animal Resources, National Research Council (DHEW publication no 85-23, revised 1985). Hamsters were housed in an environmentally controlled room with an alternating 12-h light/dark cycle and given ad libitum access to food and water except when food is withheld for the experimental protocols.
Blood was collected via the retro-orbital sinus into heparinized tubes from hamsters fasted for 16 h at days 0, 8, and 15. Plasma was harvested after centrifugation at 1500-×g at room temperature for 10 min and plasma total cholesterol and triglyceride concentrations were measured enzymatically. Plasma LDL cholesterol (combination of very low-density, intermediate, and low-density lipoprotein-cholesterol) was precipitated with phosphotungstate reagent and HDL cholesterol was measured in the supernatant. The concentration of LDL cholesterol was calculated as the difference between plasma TC and HDL cholesterol. The accuracy and precision of the procedures used for the measurements of plasma TC and HDL cholesterol were maintained by participation in the Lipid Standardization Program of the Centers for Disease Control and the National Heart, Blood and Lung Institute (Atlanta, Ga.). All reagents used were supplied by Sigma-Aldrich (St. Louis, Mo.). All assays were performed using a Cobas Mira Plus® (Cobas Mira Plus® is a registered trademark of Roche Diagnostic Systems, Inc.) clinical chemistry autoanalyzer using 10 μl of plasma for each sample (Roche Pharmaceuticals, Basel, Switzerland).

lymph node cells = experiment: Lymph node cell mitogen and antigen proliferative responses (MTT) from treated CIA mice; type: in vivo, DBA/1 LacJ mice; settings: mice treated 40 mg/kg i.p. ×3/week; p<0.05
Experimental: This study was designed to evaluate the anti-inflammatory and anti-arthritic activity of compound of Formula III using the CIA model by observing changes in immune parameters due to treatment. The animals were administered oral corticosteroid, Enbrel, an injectable TNF inhibitor, and compound of Formula III using both oral and parenteral delivery. Seventy-five DBA/1 LacJ mice 8-10 weeks of age were obtained from Jackson Labs and quarantined in our facility for 10 days prior to experimentation. All mice weighed >16 grams at the start of the experiment. […] Mice were monitored by daily examination for the onset of disease. […]
Spleen and lymph nodes were removed at sacrifice, and mitogen responses to Con A and LPS, and antigen proliferative responses to type II collagen were determined using standard techniques. […] After incubation at 37° C. overnight, the optical density at 590 nm was read using a microplate photospectrometer (Molecular Devices, CA). The mean and OD values, which provide a measure of cell proliferation, were recorded for each cell sample with respect to antigen stimulation. Antigen specific responses were expressed as (OD590 [Stimulated Culture]−OD590 [Spontaneous proliferation culture])/OD590 [Spontaneous proliferation culture].

[4] = injected i.p. ×3/week (Formula III 40 mg/kg; Enbrel 100 μg)
[5] = gavaged ×5/week (Formula III 40 mg/kg; prednisolone 10 mg/kg)

Compound	number of involved (arthritic) paws [1]	arthritis score [1, 4]	terminal anti-CII antibody levels compared with titers at disease onset [2]	terminal anti-CII antibody levels compared with control mice [2]	arthritis score [1, 5]	arthritis score ([1]; gavaged ×5/week (Formula III 40 mg/kg; prednisolone 10 mg/kg), listed as prednisolone)	reduction of total serum Ig levels at the terminal bleed vs control mice (total serum Ig)	plasma HDL-C change compared to vehicle control ([3]; 0.9 mg/kg once per day)	plasma nonHDL-C change compared to vehicle control ([3]; 0.9 mg/kg once per day)	plasma total cholesterol change compared to vehicle control ([3]; 0.9 mg/kg once per day)	plasma triglycerides change compared to vehicle control ([3]; 0.9 mg/kg once per day)	plasma HDL-C change compared to vehicle control ([3]; 1.8 mg/kg once per day)	plasma nonHDL-C change compared to vehicle control ([3]; 1.8 mg/kg once per day)	plasma total cholesterol change compared to vehicle control ([3]; 1.8 mg/kg once per day)	plasma triglycerides change compared to vehicle control ([3]; 1.8 mg/kg once per day)	plasma HDL-C change compared to vehicle control ([3]; 3.6 mg/kg once per day)	plasma nonHDL-C change compared to vehicle control ([3]; 3.6 mg/kg once per day)	plasma total cholesterol change compared to vehicle control ([3]; 3.6 mg/kg once per day)	plasma triglycerides change compared to vehicle control ([3]; 3.6 mg/kg once per day)	lymph node cell response to LPS (lymph node cells)
Enbrel	significantly lower number of arthritic paws	significantly reduced the arthritis score; also recorded: significant reduction	–	–	–	–	–	–	–	–	–	–	–	–	–	–	–	–	–	–
C[C@]12C=CC(=O)C=C1CC[C@@H]1[C@@H]2[C@@H](O)C[C@@]2(C)[C@H]1CC[C@]2(O)C(=O)CO [Prednisolone, prednisolone, reference compound]	significantly lower number of arthritic paws	–	minor decrease	significant reduction	significant reduction	significantly reduced the arthritis score	not significantly different	–	–	–	–	–	–	–	–	–	–	–	–	–
COc1cccc2c1[n+]([O-])c1cccc(O)c1[n+]2[O-] [compound of Formula III]	did not significantly influence the number of involved paws	marked effect; also recorded: significant reduction	maintenance of titers equivalent to the levels at onset	significant reduction	did not exert a statistically significant effect	–	not significantly different	−2%	−36%	−27%	−37%	7%	−24%	−17%	−14%	−4%	−26%	−21%	−20%	significant reduction
